Patent publication US20150202291A1, “COMBINATIONS OF CHECKPOINT INHIBITORS AND THERAPEUTICS TO TREAT CANCER” (COGNATE BIOSERVICES, INC., priority 2013, published 2015)

How the values were obtained:
GL261 murine glioma [1] = experiment: Intracranial GL261 glioma model, flow cytometry of tumor and lymph node cell populations; format: in vivo, C57BL/6 mice; conditions: day 16 post-implant, 72 h after second treatment
Experimental: There may be limited endogenous immune response to tumor in C57BL/6 mice intracranially implanted with GL261 murine glioma (FIG. 1A). Mice were intracranially implanted with GL261 murine glioma and then administered PBS (1×) or lysate-pulsed DC vaccine subcutaneously on days 3 and 13 post-tumor implant. On day 16, 72 h after the second treatment, mice were euthanized and spleen, lymph, and brain hemispheres harvested for processing. […] To determine the overall physiologic effect of these cell populations, two groups of GL261 glioma-bearing mice (control and DC vaccine-treated) were maintained and monitored survival.
It was hypothesized that anti-tumor response promoted by the vaccination treatment is mitigated by PD-1/PD-L1 signaling in the tumor microenvironment. […] To evaluate this population, two additional therapies to control and DC-vaccine treatment were examined: anti-PD-1 mAb-treated and combination DC vaccine with anti-PD-1 mAb-treated groups. Spleen, lymph, and brain hemispheres harvested for processing on day 16 post-implant (72 h after second treatment). […] To evaluate therapeutic benefit, mice were implanted, treated, and monitored for survival.
The inhibitory myeloid population was depleted utilizing Ly6C depleting Ab or the clinically-relevant CSF1r inhibitory drug PLX3397. […]

GL261 murine glioma [2] = experiment: Intracranial GL261 glioma model, survival; format: in vivo, C57BL/6 mice; conditions: well-established intracranial GL261 glioma
Experimental: The inhibitory myeloid population was depleted utilizing Ly6C depleting Ab or the clinically-relevant CSF1r inhibitory drug PLX3397. […] Spleen, lymph, and brain hemispheres harvested for processing on day 16 post-implant (72 h after second treatment).
Bone marrow-derived DC and vaccination. […] Briefly, bone marrow cells were cultured in a humidified atmosphere of 5% CO2 at 37° C. overnight in complete RPMI (Mediatech, Inc. Herndon, Va.) (supplemented with 10% FBS, 1% (v/v) penicillin and streptomycin). […]

[3] = system: advanced, treatment-refractory malignancies; conditions: cited from earlier work
[4] = system: diffuse large B-cell lymphoma (DLBCL); conditions: cited from earlier work

Q: For `FC(F)(F)c1ccc(CNc2ccc(Cc3c[nH]c4ncc(Cl)cc34)cn2)cn1` [PLX3397], which “activated tumor-infiltrating lymphocytes (CD3+CD8+CD25+)” value (GL261 murine glioma [1]) is on record?
A: significant tumor-infiltrating population

Q: And the “inhibitory myeloid population (Ly6C+, PD-L1+) in tumor” value (GL261 murine glioma [1])?
A: absence

Q: And the survival (GL261 murine glioma [2])?
A: entirely recovered survival benefit

Q: For “BMS-936558: fully human IgG4 monoclonal antibody targeting PD-1”, which tumor regressions ([3]; advanced, treatment-refractory malignancies, biweekly administration) is on record?
A: durable partial or complete regressions

Q: What about the clinical activity ([3]; subjects with non-small cell lung cancer (NSCLC)) of the same molecule?
A: substantial clinical activity

Q: For “CT-011: humanized IgG1 monoclonal antibody against PD-1”, which “activity of natural killer cells” value ([4]; phase II trial finding) is on record?
A: augments the activity of natural killer cells

Q: And the “subjects progression-free at the end of the follow-up period” value ([4]; phase II, DLBCL after autologous stem cell transplantation, control group 47%)?
A: 70%

Q: And the subjects alive ([4]; phase II, DLBCL after autologous stem cell transplantation, control group 62%)?
A: 82%
